Where “and” joins values, the source holds several entries; their conditions need not be identical. Equal values may be shown once.
Assay: 54-hour autosampler stability of extracted tigecycline from incurred human bone with ascorbic acid
Type: physicochemical
Settings: ascorbic acid added
Protocol: Stability tests for tigecycline in IncRB reference QC samples or incHB QC samples were conducted in 4 cycles of freeze/thaw for IncRB QC and (3 cycles for IncHB QC of −70° C./22° C.) and in standard bench top (22° C.) stability (4 hours for rat bone and 6 hours for human bone) tests. These tests occurred during sequential extraction from run 1 through run 3. Bench top stability of IncRB reference QC samples (4 hours at room temperature) and incurred human bone sample (6 hours at room temperature), and extracted tigecycline from the IncRB and incurred human reference QC samples in the autosampler at 4° C. were evaluated during the method validation. Autosampler stability of tigecycline in IncRB Group B sample (^14C) was employed as the sample pool because aliquots from IncRB Group A were exhausted from prior testing. Results were plotted as the peak area ratio against time. The 54-hour autosampler stability of incurred human bone was performed by comparing extracted samples injected immediate after extraction (baseline) with the same set of extracted samples re-injected after 54 hours of storage at 4° C., regressed with a standard curve injected immediately after extraction (baseline).

Compound: CN(C)c1cc(NC(=O)CNC(C)(C)C)c(O)c2c1C[C@H]1C[C@H]3[C@H](N(C)C)C(O)=C(C(N)=O)C(=O)[C@@]3(O)C(O)=C1C2=O [tigecycline, Tigecycline]
- % Difference (54 hours vs initial) (54 hours at 4° C.): −0.7%
- Initial Concentration immediately after extraction (replicates) (incurred human bone): 261 and 258 and 270 and 269 and 218
- Re-injected sample concentration after 54-hour at 4° C. (replicates) (incurred human bone): 288 and 250 and 227 and 277 and 223
- Initial Concentration immediately after extraction, Mean (n = 5, incurred human bone): 255
- Re-injected sample concentration after 54-hour at 4° C., Mean (n = 5, incurred human bone): 253

Reference: US20070259439A1, “Determination of antibiotic concentration in bone” (Wyeth, priority 2006, published 2007)
